Data on 63 compounds can be found in a melting point compilation (Tetko et al.; mined from patent text by program, amines drawn as free bases though some values may be those of a salt).

For `CCn1ccc(OC2c3cc(C#N)ccc3OC(C)(C)C2(C)O)cc1=O` (stereo not drawn), the melting point fell in the range of 166 to 168 °C.
`Cc1cnc2c(NC(=O)c3ccccc3[N+](=O)[O-])ccc(C)c2c1-n1ccnc1` registered a melting point of 231 to 233 °C.
The compound `COc1c(Cl)nc(-c2ccccc2)nc1Cl` gave a melting point of 78 to 80 °C.
In the case of `O=C(C1=COCCOCCOCCOCCOCCO1)c1cccnc1`, the melting point fell in the range of 98 to 100 °C.
For `CCNC(=O)CC(c1ccc(OC)c(OC)c1)N1C(=O)c2ccccc2C1=O` (stereo not drawn) the value was 131 to 132 °C; for `Cc1ccc(C(=O)C(=C2NCCCS2)[N+](=O)[O-])cc1`, 141 to 143 °C.
In turn, `CN1C(C)(C)CC(Nc2c([O-])[c+](NC3CC(C)(C)N(C)C(C)(C)C3)[c+]2[O-])CC1(C)C` registered a melting point of more than 340 °C.
On to `COc1ccc(S(=O)(=O)C(CCCCc2ccccc2)CC(=O)NO)cc1OC` (stereo not drawn), for which the melting point was 157 to 159 °C.
The value for `CC1(C)CCC(C)(C)c2cc3oc(-c4ccc(CO)cc4)nc3cc21` was 200 °C; that for `CCCCCCCCCCCCCCCCC(C(=O)NC1=NN(c2ccccc2)C(=O)C1C)S(=O)(=O)O` (stereo not drawn) was 240 °C.
As for `CCCCCCCSc1nn2c(=O)c(C)c(F)nc2s1`, the melting point was in the range of 78 to 91 °C.
The value for `CC1(C)CCCC(C)(C)N1OCc1ccccc1C(=O)ON1C(=O)CCC1=O` was 145 °C; that for `CN(C)S(=O)(=O)c1cc(-n2c(=O)cc(C(F)(F)F)n(C)c2=O)ccc1Cl` was 194 to 196 °C; that for `COc1cc(CCCC(=O)OC(C)C)ccc1OCc1nc(-c2ccco2)oc1C` was 45 to 46 °C.
`COc1cc(C(=O)c2c(C)c(OC)c3ccc(C(=O)O)cn23)ccc1[N+](=O)[O-]` returned a melting point of 287 °C.
As for `Cc1cc2c(cc1C)N=C(c1ccc(-n3c(C)nc4cnccc43)cc1)CC(N)=N2`, the melting point lay within 299 to 302 °C.
For `CCCCCCCCCCCCCCOc1ccc(CC(=O)NCCc2ccccn2)cc1` the value was 90 to 91 °C; for `CCCc1c([C@@H]2C[C@H]2c2ccccc2)oc2ccc(C(=O)O)cc2c1=O` (relative stereo), 195 to 196 °C; for `CC(Br)c1cc2ccccc2s1` (stereo not drawn), 53 °C.
In turn, `CC(O)c1ccc(OCCCN2CCC(c3noc4cc(F)ccc34)CC2)c(O)c1` (stereo not drawn) gave a melting point of 142 to 144 °C.
As to `COc1ccc(-c2c3nn(-c4ccc(OC)cc4)c(=O)c-3c[nH]c2C)cc1`, the melting point fell in the range of 274 to 282 °C.
On to `CCCCc1sc2ccc([N+](=O)[O-])cc2c1C(=O)c1ccc(OCCCN(CCCC)CCCC)cc1`, for which the melting point was found to be 88 °C.
With `COCCC1CCN(c2ccc(C#N)c3sccc23)C1` (stereo not drawn), the melting point fell in the range of 88 to 89 °C.
Take `Cc1cc(Oc2ccc3nc(COc4ccc(CC5SC(=O)NC5=O)cc4)n(C)c3c2)cc(C)c1NC(=S)Nc1ccc(Cl)cc1` (stereo not drawn): the melting point is 160 to 162 °C.
For the compound `CN([C@H]1CC[C@H](Nc2nccc(-n3nnc4ccccc43)n2)CC1)S(C)(=O)=O`, the melting point lay within 250 to 252 °C.
For `OC1(c2ccc(-c3ccccc3)cc2)CN2CCC1CC2` (stereo not drawn) the value was 165 to 166 °C.
Compound `O=S(=O)(Nc1ccc(Cl)cc1)C(Cl)=C(Cl)Cl` showed a melting point of 73 to 76 °C.
Compound `O=C1OCc2c1cc1ccc3c(c1c2-c1ccc(F)cc1)OCO3` returned a melting point of 215 to 218 °C.
Regarding `O=C(O)CCCCCCCSc1ccc(Cl)cc1`, the melting point fell in the range of 92 to 93 °C.
Consider `O=C(Nc1ccc2cc(CN3CCCC3)cnc2c1)c1ccc(-c2ccc(Cl)cc2)cc1`, for which the melting point was 217 to 220 °C.
`NC(=O)C1CCN(c2cc(-c3ccccc3)nc3ccc(F)cc23)CC1` returned a melting point of 230 to 233 °C.
`CC(=O)c1cc(Cl)c2c(c1Cl)C(C)(C)CCS2(=O)=O` came in with a melting point of 154 to 155 °C.
`c1ccc(C2CNc3c(cnc4ccccc34)O2)cc1` (stereo not drawn) came in with a melting point of 194 to 195 °C.
For the compound `Cc1nc(-c2ccccc2)cc(-c2cccc([N+](=O)[O-])c2)c1CBr`, the melting point lay in the range of 155 to 157 °C.
Consider `CCCn1nc2c(N)nc3ccccc3c2c1CCCCS(=O)(=O)NC`, for which the melting point fell in the range of 166 to 169 °C.
The compound `O=[N+]([O-])c1ccc(C2SCCS2)cc1` returned a melting point of 80 to 82 °C.
`Cc1cc(C2=NN=C(C(N)=O)Cc3cc4c(cc32)OCO4)ccc1[N+](=O)[O-]` displayed a melting point of 266 to 268 °C.
For `CN(C)CCCC#Cc1cnc(NC(=O)OC(C)(C)C)nc1` the value was 119 to 120 °C; for `Nc1nc(Cl)cc(NC(CO)C2C=CCC2)n1` (stereo not drawn), 201 to 203 °C; for `N#Cc1ccc(NC(=O)c2ccnc(SCc3ccc(F)cc3)c2)cc1`, 160 to 162 °C.
In turn, `CCOC(=O)C1=C(C(F)(F)F)Nc2n[nH]cc2C1c1ccsc1` (stereo not drawn) had a melting point of 140 to 145 °C.
The value for `C[C@](N)(CO)CCc1ccc2oc(-c3ccc(O)cc3)nc2c1` was 229 to 231 °C.
On to `CCN=C(N)Nc1cnn(C(C)CCC(=N)NNC(C)=O)n1` (stereo not drawn), for which the melting point is 136 to 138 °C.
On to `c1ccc2c(c1)CCN(Cc1cc3ccccc3[nH]1)C2`, for which the melting point is 129 to 131 °C.
The value for `COC(=O)c1c(C)ccc(C(O)=S)c1C` was 178 °C; that for `COc1ccc(/C=C/c2nc3cc([N+](=O)[O-])ccc3[nH]2)cc1OC` was 223 to 225 °C.
`O=C(c1cccs1)c1cnn2c(-c3cccc(N(C(=O)c4c(Cl)cccc4Cl)C(=O)c4c(Cl)cccc4Cl)c3)ccnc12` returned a melting point of 238 to 240 °C.
For the compound `O=C1c2c(Br)cccc2-n2cnc(I)c2[C@@H]2CCCN12`, the melting point lay within 301 to 303 °C.
Take `COCCOc1ccc2c(=O)c(C#N)c[nH]c2c1`: the melting point is more than 250 °C.
On to `COC(=O)c1ccc(OCC2CCCCC2)cc1`, for which the melting point fell in the range of 62 to 63 °C.
Turning to `Cc1nc2cc(C(F)(F)F)c(Cl)c([N+](=O)[O-])c2n1N(C)C`, the melting point was in the range of 160 to 162 °C.
For `CSCc1nc2c(N)nc3ccccc3c2n1Cc1ccccc1`, the melting point was in the range of 217 to 219 °C.
The compound `C=CCSC1(C(F)(F)F)CN(C2CC2)C(=O)Nc2ccc(Cl)cc21` (stereo not drawn) yielded a melting point of 144 to 146 °C.
Consider `COc1ccc(C)c([N+](=O)[O-])c1C`, for which the melting point fell in the range of 53 to 55 °C.
As to `COc1cc(O)c2c(c1)C1OC1CC(O)C(O)C(=O)C=CCC(C)OC2=O` (stereo not drawn), the melting point lay within 173 to 174 °C.
For `CCCn1cc(C(=O)c2cccc3ccccc23)cc1C(=O)O` the value was 145 °C; for `CC(C)c1ccc(Cn2[nH]c(N)cc2=O)cc1`, 105 °C; for `CC(C)c1nn(-c2ccc(Cl)cn2)cc1CCCOc1ccccc1CC(=O)O`, 141 to 142 °C.
`COC(=O)CCCc1nc2c([nH]1)c(=O)n(C)c(=O)n2C` registered a melting point of 200 to 204 °C.
`CC(=O)Nc1ccc(CC(=O)O)cc1Br` returned a melting point of 157 to 159 °C.
For the compound `CCOC(=O)c1nn(-c2ccc(Cl)cc2)c2c1CCCC2`, the melting point lay within 139 to 140 °C.
Take `O=C(O)c1cc(NS(=O)(=O)c2ccc([N+](=O)[O-])cc2)ccc1O`: the melting point was in the range of 239 to 240 °C.
`CCCOc1ccc(C2=NN(C(=S)Nc3ccc(C(F)(F)F)cc3)CC2NCC(=O)OC)cc1` (stereo not drawn) returned a melting point of 167 to 169 °C.

The melting point is the temperature of the solid-liquid transition.
